Tests used:
[1] = tested on: human esophageal cancer surgical specimens and ESD specimens; assay: Imaging of human esophageal surgical specimens and ESD specimens; settings: surgical specimen; probe 50 μM with DPP-IV inhibitor, adhered five minutes; FIG. 10
Protocol: Esophageal specimens from patients who underwent surgery and endoscopic submucosal dissection (ESD) for esophageal cancer were brought immediately after removal in each treatment (meaning surgical specimens and ESD specimens, respectively) to an imaging room, and imaging was conducted over time after spraying the specimens directly with various fluorescent probes (compounds 1-6). For surgical specimens, 10 μL of a DMSO solution (10 mM) of the various fluorescent probes was dissolved in 2 mL of RPMI 1640 (phenol red-free) (final probe concentration 50 μM), and imaging was conducted using a Maestro In Vivo Imaging System Ex after spraying the fluorescent probe on the specimen using a spray tube for an endoscope. For ESD specimens, 3 μL of a DMSO solution (10 mM) of the various fluorescent probes was dissolved in 600 μL of RPMI 1640 (phenol red-free) (final probe concentration 50 μM), and imaging was conducted using a Maestro In Vivo Imaging System Ex after adding the fluorescent probe dropwise to the specimen.
Specifically, gauze impregnated with 5 μL of a DMSO solution (10 mM) of EP-HMRG (compound 2) dissolved in 1 mL of RPMI 1640 (phenol red-free) (final probe concentration 50 μM) and gauze impregnated with 5 μL of a DMSO solution (10 mM) of EP-HMRG (compound 2) and 5 μL of a DPP-IV inhibitor (10 mM) dissolved in 1 mL of RPMI 1640 (phenol red-free) were used. […]

[2] = Absorption and fluorescence spectra of probe and HMRG; assay type: physicochemical
Text: The absorption spectra and fluorescence spectra of compound 1 (GP-HRMG) having a glycine-proline dipeptide site synthesized in Example 1 and hydroxymethyl rhodamine green (HRMG) not having a dipeptide site were each measured.

[3] = tested on: human esophageal squamous cell carcinoma cells (KYSE30, KYSE270, KYSE140, KYSE520, KYSE150, KYSE 1170); assay: Live cell imaging in cultured esophageal cancer cells; assay type: cell-based; settings: FIG. 5
Protocol: Imaging was conducted over time after adding GP-HMRG (compound 1) to six types of human esophageal squamous cell carcinoma cells.
As human esophageal squamous cell carcinoma cells, two highly differentiated types (KYSE30, KYSE270), two moderately differentiated types (KYSE140, KYSE520), and two lowly differentiated types (KYSE150, KYSE 1170) were cultured for two days at 37° C., 5% CO2 using a μ-Slide 8 well.

DPP-IV = DPP-IV (Homo sapiens, UniProt P27487); assay: DPP-IV assay by fluorescent probe (absorption/fluorescence change, HPLC); assay type: biochemical
Protocol: Next, DPP-IV was caused to act on compound 1, and the changes in the absorption spectrum and fluorescence spectrum were measured. The results are shown in FIG. 1 (the concentration of compound 1 was 3.5 μM).
Similarly, DPP-IV was caused to act on compound 1, and analysis was conducted by HPLC chromatography.
In addition to compound 1, fluorescence assays were conducted on compounds 2-6 synthesized in the same way in Example 1. For the solution conditions, a solution comprising 18 μL of solution comprising a fluorescent probe concentration of 1.1 μM and 20 mM Tris HCl buffer (pH 7.1), and 2 μL of solution comprising DPP-IV and 20 mM Tris HCl buffer was used. The results obtained by adding DPP-IV to each solution containing a fluorescent probe and measuring the increase in the fluorescence intensity are shown in FIGS. 3 and 4 (excitation wavelength 501 nm, fluorescence wavelength 524 nm). FIG. 3 is a graph snowing the fluorescence intensity increase rate six minutes after DPP-IV addition; FIG. 4 is a graph plotting the time dependence of the fluorescence intensity.

DPP-IV, sequence (P27487 whole entry, species assumed): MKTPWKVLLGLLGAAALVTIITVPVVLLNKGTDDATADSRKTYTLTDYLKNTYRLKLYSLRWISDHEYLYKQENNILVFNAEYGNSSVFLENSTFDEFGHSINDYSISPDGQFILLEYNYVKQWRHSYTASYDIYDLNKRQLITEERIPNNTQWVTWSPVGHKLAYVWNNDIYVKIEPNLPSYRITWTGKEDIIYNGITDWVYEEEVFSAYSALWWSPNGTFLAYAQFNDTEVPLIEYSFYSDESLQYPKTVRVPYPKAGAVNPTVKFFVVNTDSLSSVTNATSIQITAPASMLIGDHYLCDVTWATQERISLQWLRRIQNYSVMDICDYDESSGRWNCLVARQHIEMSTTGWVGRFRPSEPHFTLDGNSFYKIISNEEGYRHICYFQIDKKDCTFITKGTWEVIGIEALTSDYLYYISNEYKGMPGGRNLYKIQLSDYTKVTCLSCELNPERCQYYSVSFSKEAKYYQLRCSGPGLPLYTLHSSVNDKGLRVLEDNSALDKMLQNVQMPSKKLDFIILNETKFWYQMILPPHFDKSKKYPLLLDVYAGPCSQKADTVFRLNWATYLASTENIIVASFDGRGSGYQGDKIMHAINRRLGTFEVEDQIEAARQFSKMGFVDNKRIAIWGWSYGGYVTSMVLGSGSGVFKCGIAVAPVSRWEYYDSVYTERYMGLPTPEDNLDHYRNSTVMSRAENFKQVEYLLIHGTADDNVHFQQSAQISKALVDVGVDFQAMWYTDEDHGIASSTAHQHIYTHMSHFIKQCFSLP

Row | Fluorescence quantum yield [2] | Maximum absorption wavelength [2] | Maximum fluorescence wavelength [2] | pKcycl [2] | Molar extinction coefficient at pH 7.4 [2] | HPLC analysis after reaction with DPP-IV (DPP-IV; FIG. 2) | Compound | Fluorescence intensity in tumor areas with DPP-IV inhibitor [1] | Structure form under neutral conditions ([2]; neutral conditions) | Fluorescence intensity in live cells with DPP-IV inhibitor added ([3]; probe 5 μM + 100 μM DPP-IV inhibitor, 60 minutes) | Fluorescence intensity in live cells over time ([3]; probe 10 μM, observed 60 minutes, six cell lines) | Change in absorption and fluorescence spectrum on addition of DPP-IV (DPP-IV; compound concentration 3.5 μM, FIG. 1)
1 | – | – | – | – | – | – | Nc1ccc2c(c1)Oc1cc(NC(=O)[C@@H]3CCCN3C(=O)[C@@H](N)CCC(=O)O)ccc1C21OCc2ccccc21 (stereo partly drawn) [Compound 2] | increase in fluorescence intensity was not seen in tumor areas | – | – | – | –
2 | 0.81 | 501 nm | 524 nm | 8.1 | 57,000 M^−1cm^−1 | – | hydroxymethyl rhodamine green [HMRG, reference compound] | – | – | – | – | –
3 | – | 496 nm | 527 nm | 5.0 | 300 M^−1cm^−1 | hydrolyzed and cleaved by DPP-IV | NCC(=O)N1CCC[C@H]1C(=O)Nc1ccc2c(c1)Oc1cc(N)ccc1C21OCc2ccccc21 (stereo partly drawn) [Compound 1] | – | present mainly in a colorless, non-fluorescent, closed-ring structure | fluorescence intensity was lower with the probe with inhibitor added | increase in fluorescence intensity was seen over time in all of the cells | increase in the absorbance and fluorescence intensity
